In US20240325544A1, “CATIONIC LIPID FOR COVALENT MODIFICATION OF PEPTIDES” (PharmalN Corporation, priority 2023, published 2024):
Marks after values point to notes of the source that are not given here. Bridge positions count the residues as written; N and C are the ends. Square brackets hold non-standard residues; d marks the D form. Peptide text beside a SMILES is read from it. * marks the point of attachment. Palmitoyl = CCCCCCCCCCCCCCCC(=O)*; Dab = NCC[C@H](N)C(=O)O; Dap = NC[C@H](N)C(=O)O; AEEA = NCCOCCOCC(=O)O

How the values were obtained:
cGMP [1] = test: Plasma cGMP after SC bolus of natriuretic peptides in CD-1 mice (pharmacodynamics, Table 3); assay type: in vivo; settings: SC bolus 1.0 mg/kg (≤0.45 μmol/kg), baseline 10 +/−8 pmol/ml, n = 3-5
In short: (§1)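 Peptides given SC in sterile water; retro-orbital blood at 2 and 6 h post-dose (two bleeds per mouse), K2EDTA plasma. Plasma cGMP by commercial immunoassay kit; ANP, BNP or CNP plasma levels by peptide-specific ELISA.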

[2] = Plasma concentration of respective natriuretic peptide by ELISA after SC bolus in CD-1 mice (pharmacokinetics, Table 3); settings: male, CD-1, mouse, in vivo, sc, 1 mg/kg
In short: as §1

cGMP [3] = test: Plasma cGMP profile after single SC injection in CD-1 mice (FIG. 1B); assay type: in vivo; settings: 1.0 mg/kg SC, 0-24 hours
Description: The animals were kept in PharmaIN animal facility with controlled temperature (68-74° F.) and humidity (30-60%), and a 12-hour light/dark cycle. […] Lead buffer was used to formulate or dissolve all test articles on the day of administration. Blood sampling: Blood samples were collected via retro-orbital bleed at several timepoints (0, 0.5, 1, 2, 4, 6, 8, and 24 hours) and processed in K2EDTA tubes (2000× g; 15 min, 4° C. within 30 minutes after collection) to obtain plasma. Plasma samples were aliquoted and stored at −80° C. until analysis. Biochemical analysis: For pharmacokinetic study, plasma aliquots were thawed at 4° C. then analyzed using a commercially available CNP ELISA kit from Phoenix Pharmaceuticals (cat #EKE-012-03), which detects the cyclic structure of CNP and all CNP derivatives with the same level of reactivity to the ELISA kit. […] For pharmacodynamic or bioactivity study of cGMP, plasma aliquots were thawed at 4° C. then analyzed using a commercially available cGMP kit from Abcam (ab133052, Waltham, MA).

C57BL/6J mice = test: Survival in LPS induced ALI model (FIG. 2B); assay type: in vivo; settings: LPS 20 mg/kg IT; 0.3 mg/kg (0.1 μmol/kg) IT every 24 hours, 3 doses, survival to 72 hours
Description: FIGS. 2A-2B: Single and repeat administration of cationic alkyl modified C-type Natriuretic Peptides increases probability of survival in LPS induced Sepsis and ALI animal models. FIG. 2A) Sepsis induction: Male C57BL/6J mice (n=10 per group; 3 groups) were injected IP with LPS (15 mg/kg) and treated with various test articles, including cationic alkyl modified CNPs (SEQ ID NO: 31 and 29; 0.3 mg/kg (0.1 μmol/kg) SC). The control group received LPS treatment without any test article. The test articles were administered immediately after LPS administration (marked with vertical dotted lines). Survival was monitored every 2 hours from 8-56 hours, after which the surviving mice were euthanized under isoflurane anesthesia. […] Survival was monitored every 8 hours for 72 hours, after which the surviving mice were euthanized under isoflurane anesthesia. […]
Animal care and treatment: Male C57BL/6J mice (6 weeks-old) were purchased from Kyudo (Saga, Japan) and maintained under a 12-hour light/12-hour dark cycle with free access to water and standard mouse diet (MF diet, Oriental Yeast Co., Ltd. Tokyo, Japan). […] Survival was monitored every 2 hours from 8-56 hours, after which the mice were euthanized under isoflurane anesthesia. […] Survival was monitored every 8 hours for 72 hours, after which the mice were euthanized under isoflurane anesthesia. […]

Sprague Dawley rats [4] = settings: rat, in vivo, sc
Sprague Dawley rats [5] = test: Dose-range finding of cationic alkyl modified CNP, subcutaneous bolus in rats (Table 2)

Row | Structure (SMILES) | Plasma concentration of cGMP, 2 hr (cGMP [1]) | Plasma concentration of cGMP, 6 hr (cGMP [1]) | level at 2 h [2] [ng/mL] | level at 6 h [2] [ng/mL] | Plasma cGMP levels over time compared to native CNP (cGMP [3]) | Survival (C57BL/6J mice) | Swelling and/or Discoloration in n = 3 (Sprague Dawley rats [4]) | Ataxia** in n = 3 (Sprague Dawley rats [5]; up to 10 mg/kg) [mg/kg] | Lethargy* in n = 3 (Sprague Dawley rats [5]; up to 10 mg/kg) [mg/kg] | Ataxia** in n = 3 (Sprague Dawley rats [5]; value in parentheses) | Lethargy* in n = 3 (Sprague Dawley rats [5]; value in parentheses)
1 | CCCCCCCCCCCCCCCC(=O)NCCOCCOCC(=O)NCCOCCOCC(=O)NCCOCCOCC(=O)N[C@@H](CCN)C(=O)N[C@@H](CCN)C(=O)NCC(=O)N[C@@H](CC(C)C)C(=O)N[C@@H](CO)C(=O)N[C@@H](CCCCN)C(=O)NCC(=O)N[C@H]1CSSC[C@@H](C(=O)O)NC(=O)CNC(=O)[C@H](CC(C)C)NC(=O)CNC(=O)[C@H](CO)NC(=O)[C@H](CCC(N)=O)NC(=O)[C@H](CO)NC(=O)CNC(=O)[C@H]([C@@H](C)CC)NC(=O)[C@H](CCCNC(=N)N)NC(=O)[C@H](CC(=O)O)NC(=O)[C@H](CC(C)C)NC(=O)[C@H](CCCCN)NC(=O)[C@H](CC(C)C)NC(=O)CNC(=O)[C@H](Cc2ccccc2)NC1=O [SEQ ID NO: 29] ({Palmitoyl-AEEA-AEEA-AEEA}-[Dab][Dab]GLSKGCFGLKLDRIGSQSGLGC-OH; disulfide 8-24; C-terminus assumed) | 157.31* pmol/mL | 65.65* pmol/mL | 18 | 8.93 | sustained elevation of cGMP levels | effective in improving survival | (3.1) μmol/kg | >10 | ≥9.5 | (3.3) μmol/kg | (3.1) μmol/kg
2 | CCCCCCCCCCCCCCCC(=O)NCCOCCOCC(=O)NCCOCCOCC(=O)NCCOCCOCC(=O)N[C@@H](CN)C(=O)N[C@@H](CN)C(=O)NCC(=O)N[C@@H](CC(C)C)C(=O)N[C@@H](CO)C(=O)N[C@@H](CCCCN)C(=O)NCC(=O)N[C@H]1CSSC[C@@H](C(=O)O)NC(=O)CNC(=O)[C@H](CC(C)C)NC(=O)CNC(=O)[C@H](CO)NC(=O)[C@H](CCC(N)=O)NC(=O)[C@H](CO)NC(=O)CNC(=O)[C@H]([C@@H](C)CC)NC(=O)[C@H](CCCNC(=N)N)NC(=O)[C@H](CC(=O)O)NC(=O)[C@H](CC(C)C)NC(=O)[C@H](CCCCN)NC(=O)[C@H](CC(C)C)NC(=O)CNC(=O)[C@H](Cc2ccccc2)NC1=O [SEQ ID NO: 31] ({Palmitoyl-AEEA-AEEA-AEEA}-[Dap][Dap]GLSKGCFGLKLDRIGSQSGLGC-OH; disulfide 8-24; C-terminus assumed) | 98.34**** pmol/mL | 53.62*** pmol/mL | 76.8 | 14.8 | sustained elevation of cGMP levels | effective in improving survival | (3.3) μmol/kg | >10 | >10 | (3.3) μmol/kg | (3.3) μmol/kg
